Experimental data: US12454510B2, “Isophthalamide compound and use thereof” (METISA BIOTECHNOLOGY CO., LTD, priority 2019, dated 2025)
Read-outs that look alike come from different tables or passages of the source.

Legend:
Assay type in all cases: in vivo
Leucania separata = test: Insecticidal activity against Leucania separata, airbrush spray on corn leaf sections; conditions: Mythimna separata, 72 h; dose 0.05 mg/L, 3 days after the treatment, 3rd instar larvae; read-out: lethality rate against Leucania separata
Method: (§1) After being dissolved in a mixed solvent of acetone/methanol (1:1), the test compound was diluted with water containing 0.1% (wt) Tween 80 to the desired concentration.
(§2) With Leucania separata, Plutella xylostella, and Chilo suppressalis as targets, airbrush spray method was used for the determination of the insecticidal activity.
(§3) Determination method: Corn leaves were cut into 2 cm leaf sections, and Airbrush spray treatment was carried out at a pressure of 10 psi (approximately 0.7 kg/cm^2) on the front and back sides of each leaf section, with a spray volume of the compound to be tested of 0.5 ml. After drying in the shade, 10 of 3rd instar larvae were introduced for each treatment, and each treatment was repeated 3 times. After the treatment, it was placed in an observation room at 25° C. and a relative humidity of 60-70%, and 3 days after the treatment, the number of surviving insects was investigated, and the mortality rate was calculated.

Plutella xylostella = test: Insecticidal activity against Plutella xylostella, airbrush spray on cabbage leaf discs; conditions: foliar, 72 h
Method: as §1, §2
as §3, with “Cabbage” for “Corn”, “punched” for “cut”, “into leaf discs with a diameter of” for “into”, “with a puncher,” for “leaf sections,”, “disc,” for “section,”, “times for.” for “times.”

Chilo suppressalis = test: Insecticidal activity against Chilo suppressalis, sprayed Oryza sativa seedlings/stalks; conditions: Chilo suppressalis, 72 h, 3 days after the treatment, 3rd instar larvae, read-out: lethality rate against Chilo suppressalis; for pest or weed control at 0.25 µg/mL: dose 0.25 mg/L; for pest or weed control at 0.5 µg/mL: dose 0.5 mg/L; for pest or weed control at 1 µg/mL: dose 1 mg/L
Method: as §1, §2
Determination method: 1) Preparation of Oryza sativa seedlings: Oryza sativa was cultivated in a constant temperature room (a temperature of 26-28V, a relative humidity of about 60-80%, and a light illumination of 16 hL:8 hD) in a small plastic cup with a diameter of 4.5 cm and a height of 4 cm, and when the Oryza sativa grew up to the 4-5 leaf stage, robust and consistent Oryza sativa seedlings were selected for chemical treatment, and 3 repetitions were performed for each treatment. 2) Preparation for test insects: Chilo suppressalis at 3rd instar larvae were raised continuously indoors. 3) The Oryza sativa stems were sprayed and insects were introduced. Spraying was performed uniformly on the whole plant of the Oryza sativa seedlings, with 15 ml of compound solution for each treatment. The blank control was treated first, and then the above operations were repeated in the order of the test concentration from low to high. After the Oryza sativa seedlings were sprayed, they were placed in a cool place to dry the liquid, and about 5 cm of stalks at the base of the stems were cut and fed to the test insects. A glass petri dish with a diameter of 90 mm was placed with filter paper at the bottom of the dish, and then was moisturized by adding water. After that, about 5 rice stalks and 10 larvae were placed in each dish, and the petri dish was sealed with a non-woven fabric and placed in a constant temperature room for cultivation. The number of remaining live insects was investigated 3 days after the treatment.

[1] = dose 0.05 mg/L, 3 days after the treatment, 3rd instar larvae, read-out: lethality rate against Plutella xylostella
[2] = dose 0.5 mg/L, 3 days after the treatment, 3rd instar larvae, read-out: lethality rate against Plutella xylostella
[3] = dose 1 mg/L, 3 days after the treatment, 3rd instar larvae, read-out: lethality rate against Plutella xylostella

N#CCCCN(C(=O)c1ccc(F)nc1)c1cccc(C(=O)Nc2c(Br)cc(C(F)(C(F)(F)F)C(F)(F)F)cc2C(F)(F)F)c1F [Compound 11]
≥ 90%: pest or weed control at 0.05 µg/mL (Leucania separata) | pest or weed control at 0.05 µg/mL (Plutella xylostella; [1]) | pest or weed control at 0.5 µg/mL (Plutella xylostella; [2]) | pest or weed control at 1 µg/mL (Plutella xylostella; [3]) | pest or weed control at 0.25 µg/mL (Chilo suppressalis) | pest or weed control at 0.5 µg/mL (Chilo suppressalis) | pest or weed control at 1 µg/mL (Chilo suppressalis)

N#CCCCCN(C(=O)c1ccc(F)nc1)c1cccc(C(=O)Nc2c(Br)cc(C(F)(C(F)(F)F)C(F)(F)F)cc2C(F)(F)F)c1F [Compound 12]
≥ 90%: pest or weed control at 0.05 µg/mL (Leucania separata) | pest or weed control at 0.05 µg/mL (Plutella xylostella; [1]) | pest or weed control at 0.5 µg/mL (Plutella xylostella; [2]) | pest or weed control at 1 µg/mL (Plutella xylostella; [3]) | pest or weed control at 0.25 µg/mL (Chilo suppressalis) | pest or weed control at 0.5 µg/mL (Chilo suppressalis) | pest or weed control at 1 µg/mL (Chilo suppressalis)

N#CCN(C(=O)c1ccc(F)nc1)c1cccc(C(=O)Nc2c(I)cc(C(F)(C(F)(F)F)C(F)(F)F)cc2C(F)(F)F)c1F [Compound 13]
≥ 90%: pest or weed control at 0.05 µg/mL (Leucania separata) | pest or weed control at 0.05 µg/mL (Plutella xylostella; [1]) | pest or weed control at 0.5 µg/mL (Plutella xylostella; [2]) | pest or weed control at 1 µg/mL (Plutella xylostella; [3]) | pest or weed control at 0.25 µg/mL (Chilo suppressalis) | pest or weed control at 0.5 µg/mL (Chilo suppressalis) | pest or weed control at 1 µg/mL (Chilo suppressalis)

N#CCCN(C(=O)c1ccc(F)nc1)c1cccc(C(=O)Nc2c(I)cc(C(F)(C(F)(F)F)C(F)(F)F)cc2C(F)(F)F)c1F [Compound 14]
≥ 90%: pest or weed control at 0.05 µg/mL (Leucania separata) | pest or weed control at 0.05 µg/mL (Plutella xylostella; [1]) | pest or weed control at 0.5 µg/mL (Plutella xylostella; [2]) | pest or weed control at 1 µg/mL (Plutella xylostella; [3]) | pest or weed control at 0.25 µg/mL (Chilo suppressalis) | pest or weed control at 0.5 µg/mL (Chilo suppressalis) | pest or weed control at 1 µg/mL (Chilo suppressalis)

N#CCCCN(C(=O)c1ccc(F)nc1)c1cccc(C(=O)Nc2c(I)cc(C(F)(C(F)(F)F)C(F)(F)F)cc2C(F)(F)F)c1F [Compound 15]
≥ 90%: pest or weed control at 0.05 µg/mL (Leucania separata) | pest or weed control at 0.05 µg/mL (Plutella xylostella; [1]) | pest or weed control at 0.5 µg/mL (Plutella xylostella; [2]) | pest or weed control at 1 µg/mL (Plutella xylostella; [3]) | pest or weed control at 0.25 µg/mL (Chilo suppressalis) | pest or weed control at 0.5 µg/mL (Chilo suppressalis) | pest or weed control at 1 µg/mL (Chilo suppressalis)

N#CCCCCN(C(=O)c1ccc(F)nc1)c1cccc(C(=O)Nc2c(I)cc(C(F)(C(F)(F)F)C(F)(F)F)cc2C(F)(F)F)c1F [Compound 16]
≥ 90%: pest or weed control at 0.05 µg/mL (Leucania separata) | pest or weed control at 0.05 µg/mL (Plutella xylostella; [1]) | pest or weed control at 0.5 µg/mL (Plutella xylostella; [2]) | pest or weed control at 1 µg/mL (Plutella xylostella; [3]) | pest or weed control at 0.25 µg/mL (Chilo suppressalis) | pest or weed control at 0.5 µg/mL (Chilo suppressalis) | pest or weed control at 1 µg/mL (Chilo suppressalis)

N#CCN(C(=O)c1ccc(C(F)(F)F)nc1)c1cccc(C(=O)Nc2c(Br)cc(C(F)(C(F)(F)F)C(F)(F)F)cc2Br)c1F [Compound 17]
≥ 90%: pest or weed control at 0.05 µg/mL (Leucania separata) | pest or weed control at 1 µg/mL (Plutella xylostella; [3]) | pest or weed control at 1 µg/mL (Chilo suppressalis)

N#CCN(C(=O)c1ccc(C(F)(F)F)nc1)c1cccc(C(=O)Nc2c(Br)cc(C(F)(C(F)(F)F)C(F)(F)F)cc2C(F)(F)F)c1F [Compound 25]
≥ 90%: pest or weed control at 0.05 µg/mL (Leucania separata) | pest or weed control at 0.5 µg/mL (Plutella xylostella; [2]) | pest or weed control at 1 µg/mL (Plutella xylostella; [3]) | pest or weed control at 0.25 µg/mL (Chilo suppressalis) | pest or weed control at 0.5 µg/mL (Chilo suppressalis) | pest or weed control at 1 µg/mL (Chilo suppressalis)

N#CCCN(C(=O)c1ccc(C(F)(F)F)nc1)c1cccc(C(=O)Nc2c(Br)cc(C(F)(C(F)(F)F)C(F)(F)F)cc2C(F)(F)F)c1F [Compound 26]
≥ 90%: pest or weed control at 0.05 µg/mL (Leucania separata) | pest or weed control at 0.5 µg/mL (Plutella xylostella; [2]) | pest or weed control at 1 µg/mL (Plutella xylostella; [3]) | pest or weed control at 0.25 µg/mL (Chilo suppressalis) | pest or weed control at 0.5 µg/mL (Chilo suppressalis) | pest or weed control at 1 µg/mL (Chilo suppressalis)
100%: pest or weed control at 1 µg/mL (Plutella xylostella; 1 mg/L, parallel comparison test, Table 5, read-out: Lethality rate (%, 3 days after the treatment) 1 mg/L) | pest or weed control at 5 µg/mL (Plutella xylostella; 5 mg/L, parallel comparison test, Table 5, read-out: Lethality rate (%, 3 days after the treatment) 5 mg/L)
96.7%: pest or weed control at 0.5 µg/mL (Plutella xylostella; 0.5 mg/L, parallel comparison test, Table 5, read-out: Lethality rate (%, 3 days after the treatment) 0.5 mg/L)
73.3%: pest or weed control at 0.05 µg/mL (Plutella xylostella; 0.05 mg/L, parallel comparison test, Table 5, read-out: Lethality rate (%, 3 days after the treatment) 0.05 mg/L)

N#CCCCCN(C(=O)c1ccc(C(F)(F)F)nc1)c1cccc(C(=O)Nc2c(Br)cc(C(F)(C(F)(F)F)C(F)(F)F)cc2C(F)(F)F)c1F [Compound 28]
≥ 90%: pest or weed control at 0.05 µg/mL (Leucania separata) | pest or weed control at 0.5 µg/mL (Plutella xylostella; [2]) | pest or weed control at 1 µg/mL (Plutella xylostella; [3]) | pest or weed control at 0.5 µg/mL (Chilo suppressalis) | pest or weed control at 1 µg/mL (Chilo suppressalis)

N#CCN(C(=O)c1ccc(C(F)(F)F)nc1)c1cccc(C(=O)Nc2c(I)cc(C(F)(C(F)(F)F)C(F)(F)F)cc2C(F)(F)F)c1F [Compound 29]
≥ 90%: pest or weed control at 0.05 µg/mL (Leucania separata) | pest or weed control at 0.5 µg/mL (Plutella xylostella; [2]) | pest or weed control at 1 µg/mL (Plutella xylostella; [3]) | pest or weed control at 0.25 µg/mL (Chilo suppressalis) | pest or weed control at 0.5 µg/mL (Chilo suppressalis) | pest or weed control at 1 µg/mL (Chilo suppressalis)

N#CCCCCN(C(=O)c1ccc(C(F)(F)F)nc1)c1cccc(C(=O)Nc2c(I)cc(C(F)(C(F)(F)F)C(F)(F)F)cc2C(F)(F)F)c1F [Compound 32]
≥ 90%: pest or weed control at 0.05 µg/mL (Leucania separata) | pest or weed control at 0.5 µg/mL (Plutella xylostella; [2]) | pest or weed control at 1 µg/mL (Plutella xylostella; [3]) | pest or weed control at 0.5 µg/mL (Chilo suppressalis) | pest or weed control at 1 µg/mL (Chilo suppressalis)
